US20220372020A1, “CRYSTALLINE FORMS OF PHTHALAZINONE COMPOUND” (Idience Co., Ltd., priority 2020, published 2022)
Blank lines part the entries; values can stand above or below the compound they belong to.

Columns and labels:
[1] = Long-term stability purity test (total impurities by HPLC); type: physicochemical; settings: relative humidity 60±5%; for Total impurities content: HPLC
Description: Crystalline Form A of the compound of Formula 1 prepared in Example 1 was stored under long-term storage conditions (25±2° C., and Relative humidity: 60±5%). Samples were taken after 3 months, 6 months, 9 months, 12 months, 18 months, and even 24 months from the onset of the storage to measure total impurities content by high performance liquid chromatography (HPLC).

[2] = test system: poly(ADP-ribose) polymerase (PARP); settings: as disclosed in US'973; cited from earlier work
[3] = Storage behaviour of the amorphous form; type: physicochemical
Text: The obtained amorphous form readily absorbed water during the storage, i.e., it was hygroscopic, whereby the color turned yellow. It was thus confirmed that the amorphous form was not suitable for use as a medicinal drug substance.

Total impurities content ([1]; 3 months, 25±2° C.): 0.15% wt % | Total impurities content ([1]; 6 months, 25±2° C.): 0.16% wt % | Total impurities content ([1]; 9 months, 25±2° C.): 0.15% wt % | Total impurities content ([1]; 12 months, 25±2° C.): 0.14% wt % | Total impurities content ([1]; 18 months, 25±2° C.): 0.19% wt % | Stability under long-term storage conditions (in words) ([1]; 25±2° C., up to 24 months): high stability | Total impurities content ([1]; Initial, long-term storage 25±2° C.): 0.14% wt %
SMILES: Cl.O=C(c1cc(Cc2n[nH]c(=O)c3ccccc23)ccc1F)N1CC(CNC2CC2)C1 [Crystalline Form A, 4-[3-(3-[(cyclopropylamino)methyl]azetidine-1-carbonyl)-4-fluorobenzyl]phthalazin-1(2H)-one hydrochloride]

SMILES: Cl.O=C(c1cc(Cc2n[nH]c(=O)c3ccccc23)ccc1F)N1CC(CNC2CC2)C1 [compound of Formula 1, 4-[3-(3-[(cyclopropylamino)methyl]azetidine-1-carbonyl)-4-fluorobenzyl]phthalazin-1(2H)-one hydrochloride]
PARP inhibitory activity [2]: PARP inhibitory activity

Colour change during storage [3]: turned yellow | Water absorption during storage (hygroscopicity) [3]: hygroscopic
SMILES: Cl.O=C(c1cc(Cc2n[nH]c(=O)c3ccccc23)ccc1F)N1CC(CNC2CC2)C1 [amorphous form, 4-[3-(3-[(cyclopropylamino)methyl]azetidine-1-carbonyl)-4-fluorobenzyl]phthalazin-1(2H)-one hydrochloride]
